XC50 data for 62 molecules are collected here from ChEMBL document CHEMBL1157539, “Thousands of chemical starting points for antimalarial lead identification” (Nature, 2010).

For this test, the system named is Plasmodium falciparum. Kind of test: GSK_TCMDC: Inhibition of Plasmodium falciparum 3D7 in whole erythrocytes, using parasite LDH activity as an index of growth. It is filed as functional, organism-based. The settings on record: Plasmodium falciparum, 3D7.

Each structure is given as a SMILES string.

For `CN(C)c1nc2cc(-n3cnc4cc(-c5ccc(Cl)cc5)sc4c3=O)ccc2n1CCCN1CCCCC1`, the XC50 was 845 nM. The value for `COc1ccc(-c2csc(N(CCCN(C)C)C(=O)c3cc4c(C)nn(-c5ccccc5)c4s3)n2)cc1` was 623 nM; that for `Cc1[nH]c(C)c(-c2ccc(-c3ccc(Cl)cc3)cc2)c(=O)c1Cl` was 215 nM. The value for `CCOC(=O)C1=C(C)N=c2sc(=Cc3cc(Cl)ccc3O)c(=O)n2C1c1cc(OC)c(OC)cc1Br` (configuration not stated) was 993 nM; that for `O=C(Nc1ccc2c(c1)CCC2)c1ccc(N2CCN(c3ccncc3)CC2)cn1` was 862 nM; that for `Cc1ccc2c(NC(=O)Nc3ccc(N(C)C)cc3)cc(C)nc2c1` was 820 nM. On to `CC(C)(C)c1ccc2[nH]c(-c3ccc(/C=C/C(=O)NCc4cccc(C(F)(F)F)c4)cc3)nc2c1`, for which the XC50 turned out to be 986 nM. The value for `CCCCCN1CCCN(Cc2cccc(NC(=O)c3ccc4ccccc4c3)c2)CC1` was 1220 nM. The value for `COC(=O)c1c(NC(=O)c2cccc(C(F)(F)F)c2)sc2c1CCN(Cc1ccccc1)C2` was 1340 nM; that for `Cc1cc(N2CCOCC2)nc(Nc2ccc(NC(=O)c3cccc4ccccc34)cc2)n1` was 1300 nM; that for `CN(C)[C@@H]1C(O)=C(C(N)=O)C(=O)[C@@]2(O)C(O)=C3C(=O)c4c(O)ccc(C#Cc5ccccn5)c4C[C@H]3C[C@@H]12` was 760 nM. The value for `O=C(Nc1ccc(Br)cc1)N(CCN1CCOCC1)CC(O)COCc1ccc(Cl)c(Cl)c1` (configuration not stated) was 929 nM. Take `Clc1cc(Cl)c2cc(CNCCCNc3ccc4ccccc4n3)[nH]c2c1`: the XC50 was found to be 339 nM. In the case of `CON=C1CCC(Cn2ccnc2)(c2ccc(Cl)cc2Cl)CC1` (configuration not stated) it was 875 nM; in that of `O=C(Nc1ccccc1)N(Cc1cccc(-c2ccc(CNC3CCCC3)cc2)c1)C1CCN(Cc2ccccc2)CC1`, 394 nM.

`COc1ccc(NC(=O)/C=C/c2ccc(-c3ccc(-c4noc(C)n4)cc3)cc2)cc1OCCN(C)C` had an XC50 of 1370 nM.

The molecule `CCCCCc1cc(O)c2c(c1)OC(C)(C)CC2C1=CCN(Cc2cccnc2)CC1` (configuration not stated) gave an XC50 of 991 nM.

Molecule `Fc1ccc2[nH]c(-c3cccc(-c4ccc(CN5CCN(CCN6CCOCC6)CC5)cc4)c3)nc2c1` gave an XC50 of 307 nM.

In the case of `CC(C)CNCc1cccc(-c2cccc(CN(CCCN3CCN(C)CC3)C(=O)NC3CCCCC3)c2)c1`, the XC50 turned out to be 761 nM. The value for `COc1ccc2c(N/N=C/c3cccc([N+](=O)[O-])c3)cc(C)nc2c1` was 557 nM; that for `N#Cc1cccc(NC(=O)c2ccc(S(=O)(=O)NCC3CCCN3CC3CCCCC3)cc2)c1` (configuration not stated) was 1050 nM; that for `Cc1cccc2nc(-c3ccc(-c4ccc(CN5CCCCC5)cc4)s3)[nH]c12` was 521 nM. In the case of `CN1CCN(c2cc(NC(=O)Nc3ccc(-c4ccncc4)c(Cl)c3)ccc2Br)CC1` it was 899 nM; in that of `CC(C)(C)OC(=O)c1c(NC(=O)/C=C/c2ccc(O)c(O)c2)sc2c1CCCC2`, 819 nM; in that of `O=C(c1cc(-c2cccs2)n[nH]1)N1CCN(S(=O)(=O)c2ccc(Cl)cc2)CC1`, 292 nM. `COC(=O)CNC(c1ccccc1)c1cc(Br)ccc1NC(=O)c1ccccc1Br` (configuration not stated) displayed an XC50 of 988 nM.

As for `COc1ccc(-c2ccc(NC(=O)c3ccc(C#N)cc3)c(F)c2)cc1CN(C)CCN(C)C`, the XC50 was determined as 974 nM. In the case of `Cn1cc(-c2ccnc3[nH]c(-c4cccc(CNC5CCC(O)CC5)c4)cc23)cn1` (configuration not stated) it was 903 nM. The value for `Cc1cccc2nc(-c3ccc(-c4cccc(CNCCCNS(C)(=O)=O)c4)s3)[nH]c12` was 1020 nM. In the case of `O=C(Nc1ccc2c(c1)OCO2)c1cc(-c2cccnc2)nc2ccc(Cl)cc12` it was 524 nM; in that of `COc1cc(OC)c(NC(=O)C2c3ccccc3C(=O)N(CC(C)C)C2c2cccs2)cc1Cl` (configuration not stated), 46.4 nM; in that of `O=C(Nc1cccc(CN2CCCN(Cc3ccccc3)CC2)c1)c1ccc(Cl)c(Cl)c1`, 896 nM. `Cc1cc(N2CCCC2)nc(Nc2ccc(NC(=O)c3ccco3)cc2)n1` gave an XC50 of 842 nM. For `O=C(/C=C/c1ccc(Cl)c(Cl)c1)NCCCCCN1CCCC(CNS(=O)(=O)c2ccc(F)cc2)C1` (configuration not stated), the XC50 stood at 1160 nM. The value for `COc1ccc(Cl)cc1N1CCN(CCCNC(=O)c2ccc(-c3nc4cc(Cl)c(F)cc4[nH]3)c(F)c2)CC1` was 1110 nM; that for `N=C(N)c1cccc(OCCCOc2cccc(NC(=O)Nc3ccc([N+](=O)[O-])cc3)c2)c1` was 862 nM. In the case of `COc1ccc(CN2CCC(CNCCc3ccccc3Cl)CC2)cc1` it was 1110 nM; in that of `ON=C1c2cc(OCCN3CCCCC3)c(Cl)cc2-c2cc(Cl)c(OCCN3CCCCC3)cc21`, 703 nM; in that of `COc1ccc(NC(=O)/C=C/c2ccccc2Cl)cc1OCCN1CCC(NCc2cccnc2)CC1`, 761 nM. The value for `O=C(Nc1cc(Cl)ccc1O)c1cnn2c(C(F)(F)F)cc(-c3cccs3)nc12` was 859 nM; that for `COc1ccc(N2CCN(CCCCNC(=O)c3ccc(NC(=O)c4cc(Cl)cc(Cl)c4)cc3)CC2)c(OC)c1` was 299 nM. As to `CCOc1cc(Cl)c(C(C)NC(=O)c2ccccc2)cc1OCC` (configuration not stated), the XC50 was 875 nM. The value for `Fc1ccc(NC(=S)NCCc2ccccc2)cc1` was 781 nM; that for `Cc1cc(C)cc(OCC(O)CN(CCN2CCOCC2)C(=O)Nc2ccc(Br)cc2)c1` (configuration not stated) was 1030 nM. In the case of `COc1ccc(CN2CCN(CCOC(c3ccc(F)cc3)c3ccc(F)cc3)CC2)c(O)c1` it was 733 nM. In the case of `COC(=O)c1ccc2nc(-c3ccc(C(=O)NC4CCN(Cc5ccccc5)CC4)s3)[nH]c2c1` it was 688 nM; in that of `COc1nc(N)ncc1C(=O)NC1CN2CCC1CC2` (configuration not stated), 235 nM.

On to `Cc1cc(=NN=Cc2cccc(F)c2)c2ccc(F)cc2[nH]1`, for which the XC50 came out at 229 nM. As for `CCCCc1cc(NCc2ccncc2)nc(Nc2ccc(C)cc2)n1`, the XC50 amounted to 794 nM. In the case of `Cc1cccc2nc(-c3cccc(-c4cccc(CNCc5ccc(S(C)(=O)=O)cc5)c4)c3)[nH]c12` it was 299 nM; in that of `CCN(CC)C(=O)C(=O)c1c[nH]c2ccc(Cl)cc12`, 81.1 nM. In the case of `CCCCNc1c(C(=O)OCC)c(C)nc2c1[nH]c1ccccc12` it was 680 nM; in that of `COc1ccc2[nH]cc(C3CC4CCC(C3)N4CCC3CCN(C(=O)/C=C/c4ccc(Cl)c(Cl)c4)CC3)c2c1` (configuration not stated), 624 nM; in that of `COc1cc(Cc2cnc(N)nc2N)cc(OCCCCCC(N)=O)c1OC`, 1190 nM. `c1ccc(-c2nc(NC3CCCCC3)cc(C3CC3)n2)nc1` had an XC50 of 728 nM. The value for `Cn1ccc(-c2cccc(Nc3ccnc4cc(-c5nccs5)ccc34)c2)n1` was 405 nM; that for `CC(C)(C)c1ccc(-c2cc(C(=O)N[C@@H](CO)C(=O)O)on2)cc1.CC(C)(C)c1ccc(-c2nocc2C(=O)N[C@@H](CO)C(=O)O)cc1` was 966 nM. The value for `CC(CCCCOCCc1ccccc1)NCC(O)c1cc(Cl)c(N)c(Cl)c1` (configuration not stated) was 788 nM. The value for `C/C=C1\CN2CC[C@H]1C[C@@H]2[C@@H](O)c1ccnc2ccc(O)cc12` was 245 nM; that for `CCOC(=O)c1ccc(NC(=O)c2ccccc2C(=O)O)cc1` was 922 nM. Consider `C[C@H]1CN(Cc2cccc(-c3cc(CNC(=O)c4cccc(CN5CCN(C/C=C/c6ccccc6)CC5)c4)ccc3F)c2)CCN1`, for which the XC50 was 852 nM. The value for `COc1ccc2nccc([C@@H](O)CN3CCC(NCc4ccc5c(n4)NCCC5)CC3)c2c1` was 738 nM.
